The record followed here is patent US12329158B2, “Large-scale methods of uniformly coating packaging surfaces with a volatile antimicrobial to preserve food freshness” (AGROFRESH INC., priority 2013, dated 2025).

Holding throughout (format): cell-based
Test [1] concerns Monilinia fructicola. The test is described as follows: Volatile MIC of Samples 1-4 (Example 19). To be noted: 50 µl/disk.
Test [2] has as its system Alternaria alternata. Put plainly: Volatile MIC of Samples 1-4 (Example 19). The conditions noted are these: 50 µl/disk; for MIC: Alternaria alternata, read-out: MIC mg/l Alternaria alternata.
Test [3] concerns Penicillium expansum. Put plainly: Volatile MIC of Samples 1-4 (Example 19). The conditions noted are these: 50 µl/disk.
Test [4] has as its system Botrytis cinerea. The test is described as follows: Volatile MIC of Samples 1-4 (Example 19). To be noted: 50 µl/disk; for MIC: Botrytis cinerea, read-out: MIC mg/l Botrytis cinerea. On the procedure: A 3-ml volume of full-strength Potato Dextrose Agar (PDA) is added to each well. […] Cat. No. 1001-0155) are placed on the underside of a polyethylene PCR plate sealing film. […] The acetone is permitted to evaporate for 5 minutes. The headspace around the Botrytis cinerea inoculum is then sealed inside the well by the film with the adhering disk containing the fungicide. Plates are inverted to prevent any possibility of the chemical from flaking from the disk and falling onto the inoculated agar.

For test [5], the system named is Glomerella cingulata. The test is described as follows: Volatile MIC of Samples 1-4 (Example 19). To be noted: 50 µl/disk; first test (Table 15).
Test [6] has as its system Epidermophyton floccus. The test is described as follows: In vitro contact assay (Example 26). The conditions noted are these: 5 days at 28 C, 100% control. Here is the method: (§1) Half-strength Potato Dextrose Agar (PDA) is amended with a mixture of one of the test compounds in acetone or methanol to a final concentration of 50, 10, 2, 0.4 or 0.08 mg/L. A 3-mL volume of the amended media is added to each well of the microtiter plate. […] The plates are sealed with a clear film and incubated inverted for 5 days at 28° C.

For test [7], the system named is Trichophyton rubrum. The test is described as follows: In vitro contact assay (Example 26). The conditions noted are these: 5 days at 28 C, 100% control. On the procedure: as §1
Test [8] deals with Trichophyton mentagrophytes. Put plainly: In vitro contact assay (Example 26). To be noted: 5 days at 28 C, 100% control. On the procedure: as §1
For test [9], the system named is Epidermophyton floccus. Put plainly: In vitro volatile assay (Example 26). To be noted: 5 days at 28 C, 100% control. On the procedure:
(§2) Volatile assay: 6-well (16.5 mL volume per well) microtiter plates are used in an in vitro inhibition assay for Compounds A and 31, and compared to other registered fungicides (5-fluorocytosine, Amphotericin B, aspofungin diacetate, Fluconazole and Itraconazole). A 7.5-mL volume of half strength PDA is added to each well. After drying, a mycelial plug (5 mm diameter) is aseptically obtained from actively growing cultures of Epidermophyton floccus, Trichophyton rubrum, or Trichophyton mentagrophytes and placed at the center of the plate with the mycelial side in contact with the agar. A Whatman #1 filter disk (Cat. No. 1001-325) is placed, in duplicate, on the underside of a polyethylene PCR plate sealing film. […] The headspace around the inoculum is then sealed inside the well by the film with the adhering disk containing the fungicide and incubated inverted for 5 days at 28° C.

In test [10] the test system is Trichophyton rubrum. The test is described as follows: In vitro volatile assay (Example 26). To be noted: 5 days at 28 C, 100% control. Here is the method:
as §2

Test [11] concerns Trichophyton mentagrophytes. The test is described as follows: In vitro volatile assay (Example 26). To be noted: 5 days at 28 C, 100% control. Here is the method: as §2
Where [12] appears, read: Epidermophyton, 120 h, read-out: MIC (mg/L) Epidermophyton floccus.
[13] abbreviates: Trichophyton rubrum, 120 h, read-out: MIC (mg/L) Trichophyton rubrum.
Where [14] appears, read: Trichophyton mentagrophytes, 120 h, read-out: MIC (mg/L) Trichophyton mentagrophytes.

≈ marks a conversion by molar mass, not a printed value. Where two headings read alike, the source gives them in different places.

Turning to `Fc1ccc2c(c1)COB2OCCOB1OCc2cc(F)ccc21` [Sample 1], the MIC in test [1] (Monilinia fructicola, repeat test (Table 16), read-out: MIC mg/l Monilinia fructicola) was 2.2 mg/L; in test [2] (first test (Table 15)) it was 22 mg/L; in [2] (repeat test (Table 16)), > 2.2 mg/L; in test [3] (Penicillium expansum, first test (Table 15), read-out: MIC mg/l Penicillium expansum) it was 8.9 mg/L; in test [4] (first test (Table 15)) it was < 0.6 mg/L; in [4] (repeat test (Table 16)), 0.6 mg/L. For the same compound, in [3] (repeat test (Table 16)), the “MIC mg/l Penicillium expansum” value is 8.9 mg/L.

In the case of `c1ccc2c(c1)COB2OCCOB1OCc2ccccc21` [Sample 2], the “MIC mg/l Monilinia fructicola” value in test [1] (first test (Table 15)) came out at 35.7 mg/L. For the same compound, the “MIC mg/l Alternaria alternata” value in [2] (first test (Table 15)) worked out at 8.9 mg/L. Besides, the “MIC mg/l Penicillium expansum” value in test [3] (first test (Table 15)) and in test [3] (repeat test (Table 16)) was 8.9 mg/L in each case. For the same compound, the “MIC mg/l Botrytis cinerea” value in [4] (first test (Table 15)) was <0.6 mg/L; in test [4] (repeat test (Table 16)), 2.2 mg/L. Further, the “MIC mg/l Glomerella cingulata” value in test [5] worked out at 142.9 mg/L.

`CC(COB1OCc2cc(F)ccc21)OB1OCc2cc(F)ccc21` (stereo not shown) [Sample 4]: the “MIC mg/l Monilinia fructicola” value in test [1] (repeat test (Table 16)) was found to be 1.1 mg/L. Moreover, the “MIC mg/l Alternaria alternata” value is 1.1 mg/L in test [2] (first test (Table 15)) and >2.2 mg/L in [2] (repeat test (Table 16)). Moreover, the “MIC mg/l Penicillium expansum” value in test [3] (first test (Table 15)) and in [3] (repeat test (Table 16)) was 8.9 mg/L in each case. The figures for the “MIC mg/l Botrytis cinerea” value in [4] (first test (Table 15)) and in [4] (repeat test (Table 16)) were <0.6 mg/L and 0.6 mg/L, respectively.

For the compound `CC(C)(OB1OCc2cc(F)ccc21)C(C)(C)OB1OCc2cc(F)ccc21` [Sample 3], the “MIC mg/l Monilinia fructicola” value in test [1] (repeat test (Table 16)) stood at 1.1 mg/L. Moreover, the “MIC mg/l Alternaria alternata” value in test [2] (first test (Table 15)) is 2.2 mg/L; in test [2] (repeat test (Table 16)) it was >2.2 mg/L. The “MIC mg/l Penicillium expansum” value in test [3] (first test (Table 15)) was 4.5 mg/L; in test [3] (repeat test (Table 16)), 8.9 mg/L. For the same compound, the “MIC mg/l Botrytis cinerea” value was <0.6 mg/L in test [4] (first test (Table 15)) and 1.1 mg/L in test [4] (repeat test (Table 16)).

In the case of `C[C@@H]1[C@H](O)[C@@H](C)/C=C/C=C/C=C/C=C/C=C/C=C/C=C/[C@H](O[C@@H]2O[C@H](C)[C@@H](O)[C@H](N)[C@@H]2O)C[C@@H]2O[C@](O)(C[C@@H](O)C[C@@H](O)[C@H](O)CC[C@@H](O)C[C@@H](O)CC(=O)O[C@H]1C)C[C@H](O)[C@H]2C(=O)O` [Amphotericin B], the “MIC (mg/L) Epidermophyton floccus” value was 50.0 mg/L (≈ 54.1 µM) in test [6] and >50 mg/L in test [9]. Moreover, the “MIC (mg/L) Trichophyton rubrum” value in test [7] and in test [10] was >50 mg/L each time. Further, the “MIC (mg/L) Trichophyton mentagrophytes” value in test [8] and in [11] was >50 mg/L in each case.

In the case of `OC(Cn1cncn1)(Cn1cncn1)c1ccc(F)cc1F` [Fluconazole], the MIC was 10 mg/L (≈ 32.7 µM) in test [6] (setting [12]); 50 mg/L (≈ 163 µM) in test [7] (setting [13]); > 50 mg/L in [8] (setting [14]); > 50 mg/L in test [9] (setting [12]); > 50 mg/L in test [10] (setting [13]); > 50 mg/L in test [11] (setting [14]).
